Reference: US10517898B2, “Compositions and methods related to hematologic recovery” (The Regents of the University of California, priority 2014, dated 2019)

System: PTPσ^−/− BM cells
Test: Transendothelial migration assay (CFCs from migrated cells in lower chamber)
Format: cell-based
Settings: 25 μM EHT1864, 16 hours culture, mouse spleen endothelial cell transwell, CFCs of migrated cells (FIG. 3D)
Description: Transendothelial migration assays were performed as follows. VeraVec™ mouse spleen endothelial cells (Angiocrine Bioscience, New York N.Y.) were cultured to confluence in […] pore transwells (Corning Incorporated, Corning N.Y.). Transwells were seeded with 200,000 BM cells in IMDM with 10% FBS, 1% penicillin-streptomycin, 125 ng/mL stem cell factor, 50 ng/mL Flt-3 ligand and 20 ng/mL thrombopoietin with or without 25 μM Rac inhibitor, EHT1864 (R&D Systems, Minneapolis, Minn.). 100 ng/mL SDF-1α (R&D) or media was added to the bottom chamber of the transwell. 16 hours post culture, cells in the bottom chamber were collected and CFCs were set up with the migrated cells.

Compound: O=c1cc(CN2CCOCC2)occ1OCCCCCSc1ccnc2cc(C(F)(F)F)ccc12 [EHT1864]
- transendothelial migration capacity of PTPσ^−/− cells: completely abrogated
